# From patent US10857105B2, “Compounds and compositions for intracellular delivery of therapeutic agents” (ModernaTX, Inc., priority 2017, dated 2020)
# Tests used:
# [1] = Encapsulation efficiency of RNA in nanoparticle compositions (RIBOGREEN assay); type: physicochemical; settings: Table 1A; lipid:DSPC:cholesterol:PEG-DMG 50:10:38.5:1.5 mol %
# Method: For nanoparticle compositions including an RNA, a QUANT-IT™ RIBOGREEN® RNA assay (Invitrogen Corporation Carlsbad, Calif.) can be used to evaluate the encapsulation of an RNA by the nanoparticle composition. The samples are diluted to a concentration of approximately 5 μg/mL, in a TE buffer solution (10 mM Tris-HCl, 1 mM EDTA, pH 7.5). 50 μL of the diluted samples are transferred to a polystyrene 96 well plate and either 50 μL of TE buffer or 50 μL of a 2% Triton X-100 solution is added to the wells. The plate is incubated at a temperature of 37° C. for 15 minutes. The RIBOGREEN® reagent is diluted 1:100 in TE buffer, and 100 μL of this solution is added to each well. The fluorescence intensity can be measured using a fluorescence plate reader (Wallac Victor 1420 Multilabel Counter; Perkin Elmer, Waltham, Mass.) at an excitation wavelength of, for example, about 480 nm and an emission wavelength of, for example, about 520 nm. The fluorescence values of the reagent blank are subtracted from that of each of the samples and the percentage of free RNA is determined by dividing the fluorescence intensity of the intact sample (without addition of Triton X-100) by the fluorescence value of the disrupted sample (caused by the addition of Triton X-100).
# (§1) Initial studies were performed to compare the delivery efficiency of nanoparticle compositions including various compounds according to Formula (I), (IA), (IB), (II), (IIa), (IIb), (IIc), (IId), (IIe), (IIf), (IIg), or (III). The cationic lipid MC3 is a current standard in the art. Accordingly, the standard MC3 formulation including about 50 mol % MC3, about 10 mol % DSPC, about 38.5 mol % cholesterol, and about 1.5 mol % PEG-DMG was used as a basis for this study. Nanoparticle compositions including DSPC as a phospholipid, cholesterol as a structural lipid, PEG-DMG as a PEG lipid, an RNA, and a compound according to Formula (I), (IA), (IB), (II), (IIa), (IIb), (IIc), (IId), (IIe), (IIf), (IIg), or (III) selected from Compounds 1-159, 168-170, and 173-175 were prepared according to or via methods similar to those described in Examples 1 and 2. The ratios of the lipids were 50:10:38.5:1.5 mol % for the lipid according to Formula (I), (IA), (IB), (II), (IIa), (IIb), (IIc), (IId), (IIe), (IIf), (IIg), or (III):DSPC:cholesterol:PEG-DMG. The RNA used was an mRNA encoding luciferase (Luc) or hEPO, wherein each uridine was replaced N1-methyl pseudouridine. Tables 1A-1E summarize the content and characteristics of the formulations.
# modified luciferase = experiment: Luciferase expression in liver, lung, spleen and femur 6 hours after intravenous administration to mice; type: in vivo; settings: 6 hours after intravenous 0.5 mpk, mice
# Method: The efficacy of the nanoparticle compositions presented in Table 1A was further evaluated by measuring the expression of modified luciferase in the liver, lung, spleen, and femur upon administration of a given composition. Formulations were administered intravenously to mice (n=3) at a dosage of 0.5 mpk and bioluminescence measured after 6 hours. The standard MC3 formulation and a PBS control were also tested. […] Flux in the liver was lowest for compositions including Compounds 58, 59, 137, and 141. Flux in the spleen was highest for compositions including Compounds 4, 7, 33, 34, 48, 53, 108, 129, 130, and 148, and lowest for compositions including Compounds 9, 59, 124, and 141.
# [2] = Particle size and polydispersity index of nanoparticle compositions (Zetasizer Nano ZS); type: physicochemical
# Method: A Zetasizer Nano ZS (Malvern Instruments Ltd, Malvern, Worcestershire, UK) can be used to determine the particle size, the polydispersity index (PDI) and the zeta potential of the nanoparticle compositions in 1×PBS in determining particle size and 15 mM PBS in determining zeta potential.
# as §1
# [3] = Table 1A, lipid:DSPC:cholesterol:PEG-DMG 50:10:38.5:1.5 mol %
# [4] = Table 1C, compositions for subcutaneous administration
EE [1],"Size [2, 3]","Size [2, 4]","Size ([2]; Table 1D, compositions for subcutaneous administration, # formulated with hEPO mRNA)",SMILES,"Total Flux, Liver (modified luciferase)","Total Flux, Lung (modified luciferase)","Total Flux, Spleen (modified luciferase)"
90.82%,,,,"CCCCCCCCCOC(=O)CCCCCCCN(CCO)CCCCCCCC(=O)OC(CC)CCCCCCCC (stereo not shown) [Compound 35, nonyl 8-((2-hydroxyethyl)(8-oxo-8-(undecan-3-yloxy)octyl)amino) octanoate]",1.63E+08,2.06E+06,1.23E+08
81.45%,,,,"CCCCCCCCCOC(=O)CCCCCCCN(CCO)CCCCCCCC(=O)OC(C)CCCCCCCC (stereo not shown) [Compound 36, decan-2-yl 8-((2-hydroxyethyl)(8-(nonyloxy)-8-oxooctyl)amino) octanoate]",2.65E+07,5.82E+05,6.14E+07
,91.6 nm,,,"CCCCCCCCC(CCCCCCCC)OC(=O)CCCCCCCN(CCO)CCCC(=O)OCC1CC1CCCCCC (stereo not shown) [Compound 55, heptadecan-9-yl 8-((4-((2-hexylcyclopropyl)methoxy)-4-oxobutyl)(2-hydroxyethyl)amino)octanoate]",1.92E+09,7.02E+06,2.63E+07
,63.9 nm,,,"CCCCCCCCC(CCCCCCCC)OC(=O)CCCCCCCN(CCO)CCCCCCCC(=O)OC(CCCCCCCC)C1CC1 (stereo not shown) [Compound 65, 1-Cyclopropylnonyl 8-((8-(heptadecan-9-yloxy)-8-oxooctyl)(2-hydroxyethyl)amino)octanoate]",9.56E+09,3.79E+07,6.57E+07
,77 nm,,,"CCCCCCCCC(CCCCCCCC)OC(=O)CCCCCCCN(CCO)CCCC(=O)OC1CCC(CCCCC)CC1 (stereo not shown) [Compound 67, Heptadecan-9-yl 8-((2-hydroxyethyl)(4-oxo-4-((4-pentylcyclohexyl)oxy)butyl)amino)octanoate]",3.60E+09,1.68E+07,2.55E+07
,76.8 nm,,,"CCCCCCCCC(CCCCCCCC)OC(=O)CCCCCCCN(CCO)CCCCCC(=O)OC1CCC(CCCCC)CC1 (stereo not shown) [Compound 68, Heptadecan-9-yl 8-((2-hydroxyethyl)(6-oxo-6-((4-pentylcyclohexyl)oxy)hexyl)amino)octanoate]",8.42E+09,3.98E+07,6.69E+07
,73.7 nm,,,"CCCCCCCCC(C)OC(=O)CCCN(CCO)CCCCCCCC(=O)OC(CCCCCCCC)CCCCCCCC (stereo not shown) [Compound 70, Heptadecan-9-yl 8-((4-(decan-2-yloxy)-4-oxobutyl)(2-hydroxyethyl)amino)octanoate]",8.55E+08,6.32E+06,2.06E+06
,76.8 nm,77.3 nm,,"CCCCCCCCC(CC)OC(=O)CCCN(CCO)CCCCCCCC(=O)OC(CCCCCCCC)CCCCCCCC (stereo not shown) [Compound 72, Heptadecan-9-yl 8-((2-hydroxyethyl)(4-oxo-4-(undecan-3-yloxy)butyl)amino)octanoate]",7.97E+08,1.05E+07,6.40E+06
,65.6 nm,,,"CCCCCCCCC(CCC)OC(=O)CCCN(CCO)CCCCCCCC(=O)OC(CCCCCCCC)CCCCCCCC (stereo not shown) [Compound 74, Heptadecan-9-yl 8-((4-(dodecan-4-yloxy)-4-oxobutyl)(2-hydroxyethyl)amino)octanoate]",1.99E+09,6.93E+06,2.26E+07
,92.1 nm,88.6 nm,,"CCCCCCCCC(CC)OC(=O)CCCCCN(CCO)CCCCCCCC(=O)OC(CCCCCCCC)CCCCCCCC (stereo not shown) [Compound 75, Heptadecan-9-yl 8-((2-hydroxyethyl)(6-oxo-6-(undecan-3-yloxy)hexyl)amino)octanoate]",1.45E+09,3.92E+06,5.66E+06
,64.5 nm,,,"CCCCCCCCCOC(=O)CCCCCCCN(CCCCCCCC(=O)OC(CCCCCCCC)CCCCCCCC)CCCn1ccc(N)nc1=O [Compound 115, Heptadecan-9-yl 8-((3-(4-amino-2-oxopyrimidin-1(2H)-yl)propyl)(8-(nonyloxy)-8-oxooctyl)amino)octanoate]",,,
,63.3 nm,,,"CCCCCCCCCOC(=O)CCCCCCCN(CCCCCCCC(=O)OC(CCCCCCCC)CCCCCCCC)CCCn1cnc2c(N)ncnc21 [Compound 116, Heptadecan-9-yl 8-((3-(6-amino-9H-purin-9-yl)propyl)(8-(nonyloxy)-8-oxooctyl)amino)octanoate]",,,
,72.1 nm,,,"CCCCCCCCCOC(=O)CCCCCCCN(CCO)CCCCCCCC(=O)Oc1ccc(CCCCC)c(CCCCC)c1 [Compound 118, 3,4-Dipentylphenyl 8-((2-hydroxyethyl)(8-(nonyloxy)-8-oxooctyl)amino)octanoate]",1.72E+08,1.98E+06,2.49E+07
,60.8 nm,,,"CCCCCCCCCOC(=O)CCCCCCCN(CCO)CCCCCCCC(=O)Oc1ccc(CCCCC)cc1 [Compound 119, Nonyl 8-((2-hydroxyethyl)(8-oxo-8-(4-pentylphenoxy)octyl)amino)octanoate]",,,
,61.3 nm,,,"CCCCCCCCC(CCCCCCCC)OC(=O)CCCCCCCN(C)CCCCCCCC(=O)OC(CCCCCCCC)CCCCCCCC [Compound 124, Di(heptadecan-9-yl) 8,8′-(methylazanediyl)dioctanoate]",8.46E+06,5.67E+04,8.06E+04
,77.4 nm,,,"CCCCCCCCCOC(=O)CCCN(C)CCCCCCCC(=O)OC(CCCCCCCC)CCCCCCCC [Compound 126, Heptadecan-9-yl 8-(methyl(4-(nonyloxy)-4-oxobutyl)amino)octanoate]",7.41E+08,2.68E+06,1.87E+07
,107.1 nm,,,"CCCCCCCCC(C)OC(=O)CCCCCCCN(CCO)CCCCCCCC(=O)N(CCCCCCCC)CCCCCCCC (stereo not shown) [Compound 130, Decan-2-yl 8-((8-(dioctylamino)-8-oxooctyl)(2-hydroxyethyl)amino)octanoate]",8.17E+09,5.88E+07,1.35E+09
,84.4 nm,,,"CCCCCCCCCOC(=O)CCCCCCCN(CCCCCCCC(=O)OC(CCCCCCCC)CCCCCCCC)CCCN1C(=O)CNC1=O [Compound 174, Heptadecan-9-yl 8-((3-(2,5-dioxoimidazolidin-1-yl)propyl)(8-(nonyloxy)-8-oxooctyl)amino)octanoate]",,,
,,,81.4 nm,"CCCCCCCCCOC(=O)CCCCCCCN(CCCCCCCC(=O)OC(CCCCCCCC)CCCCCCCC)CCCNC(=N)N [Compound 207, Heptadecan-9-yl 8-((3-guanidinopropyl)(8-(nonyloxy)-8-oxooctyl)amino)octanoate]",,,

SMILES,EE [1],"Size [2, 3]","Size [2, 4]","Size ([2]; Table 1D, compositions for subcutaneous administration, # formulated with hEPO mRNA)","Total Flux, Liver (modified luciferase)","Total Flux, Lung (modified luciferase)","Total Flux, Spleen (modified luciferase)"
"CCCCCCCCC(CCCCCCCC)OC(=O)CCCCCCCN(CCO)CCCC(=O)OCCCC [Compound 51, heptadecan-9-yl 8-((4-butoxy-4-oxobutyl)(2-hydroxyethyl)amino) octanoate]",89.83%,,,,2.49E+07,3.67E+05,2.80E+07
